{"source": "the supplement of paper PMC10307832", "experiment_in_all_cases": "relative viability (nuclei count vs DMSO), 5 days (fraction); higher = more cells survive", "key": {"NCI-H2126": {"system": "NCI-H2126", "in_short": "(§1)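 One day after seeding in 1536-well plates, lung cancer cell lines were dosed by pin tool. Dosing was either single-drug or a fixed anchor-drug dose plus five library-drug doses (not always all listed) in √10 steps. After 5 days, nuclei were stained in one fix-and-stain step and counted on 4× images, and relative viability is the nuclei count of treated wells over that of vehicle wells, given as the median of duplicate plates.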"}, "NCI-H1975": {"system": "NCI-H1975", "in_short": "as §1"}, "SW 1573": {"system": "SW 1573", "in_short": "as §1"}, "NCI-H647": {"system": "NCI-H647", "in_short": "as §1"}, "PC-14": {"system": "PC-14", "in_short": "as §1"}, "NCI-H1944": {"system": "NCI-H1944", "in_short": "as §1"}, "NCI-H441": {"system": "NCI-H441", "in_short": "as §1"}, "NCI-H460": {"system": "NCI-H460", "in_short": "as §1"}, "PC-3 [JPC-3]": {"system": "PC-3 [JPC-3]", "in_short": "as §1"}, "NCI-H2170": {"system": "NCI-H2170", "in_short": "as §1"}, "EMC-BAC-2": {"system": "EMC-BAC-2", "in_short": "as §1"}, "NCI-H1355": {"system": "NCI-H1355", "in_short": "as §1"}, "NCI-H2009": {"system": "NCI-H2009", "in_short": "as §1"}, "SK-LU-1": {"system": "SK-LU-1", "in_short": "as §1"}, "NCI-H1793": {"system": "NCI-H1793", "in_short": "as §1"}, "NCI-H520": {"system": "NCI-H520", "in_short": "as §1"}, "NCI-H1755": {"system": "NCI-H1755", "in_short": "as §1"}, "LCLC-97TM1": {"system": "LCLC-97TM1", "in_short": "as §1"}, "NCI-H2347": {"system": "NCI-H2347", "in_short": "as §1"}, "NCI-H1666": {"system": "NCI-H1666", "in_short": "as §1"}, "NCI-H1993": {"system": "NCI-H1993", "in_short": "as §1"}}}
{"smiles": "Cc1cnc(-c2cnc(NCCNc3ccc(C#N)cn3)nc2-c2ccc(Cl)cc2Cl)[nH]1", "note": "+ Nc1nc2[nH]cc(CCc3ccc(C(=O)N[C@@H](CCC(=O)O)C(=O)O)cc3)c2c(=O)[nH]1 [Pemetrexed] (partner 0.2 µM)", "values": [{"measurement": "relative viability", "setting": "NCI-H2126; first compound 0.08 µM", "value": 0.706}, {"measurement": "relative viability", "setting": "NCI-H2126; first compound 0.253 µM", "value": 0.642}, {"measurement": "relative viability", "setting": "NCI-H2126; first compound 0.8 µM", "value": 0.634}, {"measurement": "relative viability", "setting": "NCI-H2126; first compound 2.53 µM", "value": 0.618}, {"measurement": "relative viability", "setting": "NCI-H1975; first compound 0.08 µM", "value": 0.289}, {"measurement": "relative viability", "setting": "NCI-H1975; first compound 0.253 µM", "value": 0.285}, {"measurement": "relative viability", "setting": "NCI-H1975; first compound 0.8 µM", "value": 0.287}, {"measurement": "relative viability", "setting": "NCI-H1975; first compound 2.53 µM", "value": 0.242}, {"measurement": "relative viability", "setting": "SW 1573; first compound 0.08 µM", "value": 1.06}, {"measurement": "relative viability", "setting": "SW 1573; first compound 0.253 µM", "value": 0.797}, {"measurement": "relative viability", "setting": "SW 1573; first compound 0.8 µM", "value": 0.551}, {"measurement": "relative viability", "setting": "SW 1573; first compound 2.53 µM", "value": 0.364}, {"measurement": "relative viability", "setting": "NCI-H647; first compound 0.08 µM", "value": 0.18}, {"measurement": "relative viability", "setting": "NCI-H647; first compound 0.253 µM", "value": 0.148}, {"measurement": "relative viability", "setting": "NCI-H647; first compound 0.8 µM", "value": 0.145}, {"measurement": "relative viability", "setting": "NCI-H647; first compound 2.53 µM", "value": 0.114}, {"measurement": "relative viability", "setting": "PC-14; first compound 0.08 µM", "value": 0.122}, {"measurement": "relative viability", "setting": "PC-14; first compound 0.253 µM", "value": 0.127}, {"measurement": "relative viability", "setting": "PC-14; first compound 0.8 µM", "value": 0.129}, {"measurement": "relative viability", "setting": "PC-14; first compound 2.53 µM", "value": 0.152}, {"measurement": "relative viability", "setting": "NCI-H1944; first compound 0.08 µM", "value": 0.604}, {"measurement": "relative viability", "setting": "NCI-H1944; first compound 0.8 µM", "value": 0.633}, {"measurement": "relative viability", "setting": "NCI-H1944; first compound 2.53 µM", "value": 0.678}, {"measurement": "relative viability", "setting": "NCI-H441; first compound 0.08 µM", "value": 0.271}, {"measurement": "relative viability", "setting": "NCI-H441; first compound 0.8 µM", "value": 0.279}, {"measurement": "relative viability", "setting": "NCI-H441; first compound 2.53 µM", "value": 0.236}, {"measurement": "relative viability", "setting": "NCI-H460; first compound 0.08 µM", "value": 0.073}, {"measurement": "relative viability", "setting": "NCI-H460; first compound 0.253 µM", "value": 0.0754}, {"measurement": "relative viability", "setting": "NCI-H460; first compound 0.8 µM", "value": 0.0676}, {"measurement": "relative viability", "setting": "NCI-H460; first compound 2.53 µM", "value": 0.0722}, {"measurement": "relative viability", "setting": "PC-3 [JPC-3]; first compound 0.08 µM", "value": 1.08}, {"measurement": "relative viability", "setting": "PC-3 [JPC-3]; first compound 0.253 µM", "value": 1.02}, {"measurement": "relative viability", "setting": "PC-3 [JPC-3]; first compound 0.8 µM", "value": 1.12}, {"measurement": "relative viability", "setting": "PC-3 [JPC-3]; first compound 2.53 µM", "value": 0.969}, {"measurement": "relative viability", "setting": "NCI-H2170; first compound 0.08 µM", "value": 0.253}, {"measurement": "relative viability", "setting": "NCI-H2170; first compound 2.53 µM", "value": 0.25}, {"measurement": "relative viability", "setting": "EMC-BAC-2; first compound 0.08 µM", "value": 0.419}, {"measurement": "relative viability", "setting": "EMC-BAC-2; first compound 0.253 µM", "value": 0.43}, {"measurement": "relative viability", "setting": "EMC-BAC-2; first compound 0.8 µM", "value": 0.393}, {"measurement": "relative viability", "setting": "EMC-BAC-2; first compound 2.53 µM", "value": 0.368}, {"measurement": "relative viability", "setting": "NCI-H1355; first compound 0.08 µM", "value": 1.06}, {"measurement": "relative viability", "setting": "NCI-H1355; first compound 0.253 µM", "value": 0.907}, {"measurement": "relative viability", "setting": "NCI-H1355; first compound 0.8 µM", "value": 0.991}, {"measurement": "relative viability", "setting": "NCI-H1355; first compound 2.53 µM", "value": 0.915}, {"measurement": "relative viability", "setting": "NCI-H2009; first compound 0.08 µM", "value": 0.966}, {"measurement": "relative viability", "setting": "NCI-H2009; first compound 0.253 µM", "value": 0.983}, {"measurement": "relative viability", "setting": "NCI-H2009; first compound 0.8 µM", "value": 0.982}, {"measurement": "relative viability", "setting": "NCI-H2009; first compound 2.53 µM", "value": 0.95}, {"measurement": "relative viability", "setting": "SK-LU-1; first compound 0.08 µM", "value": 0.966}, {"measurement": "relative viability", "setting": "SK-LU-1; first compound 0.253 µM", "value": 0.97}, {"measurement": "relative viability", "setting": "SK-LU-1; first compound 0.8 µM", "value": 0.975}, {"measurement": "relative viability", "setting": "SK-LU-1; first compound 2.53 µM", "value": 0.823}, {"measurement": "relative viability", "setting": "NCI-H1793; first compound 0.08 µM", "value": 1.04}, {"measurement": "relative viability", "setting": "NCI-H1793; first compound 0.253 µM", "value": 0.839}, {"measurement": "relative viability", "setting": "NCI-H1793; first compound 0.8 µM", "value": 0.794}, {"measurement": "relative viability", "setting": "NCI-H1793; first compound 2.53 µM", "value": 1.14}, {"measurement": "relative viability", "setting": "NCI-H520; first compound 0.08 µM", "value": 0.729}, {"measurement": "relative viability", "setting": "NCI-H520; first compound 0.253 µM", "value": 0.727}, {"measurement": "relative viability", "setting": "NCI-H520; first compound 0.8 µM", "value": 0.74}, {"measurement": "relative viability", "setting": "NCI-H520; first compound 2.53 µM", "value": 0.492}, {"measurement": "relative viability", "setting": "NCI-H1755; first compound 0.08 µM", "value": 0.403}, {"measurement": "relative viability", "setting": "NCI-H1755; first compound 0.253 µM", "value": 0.437}, {"measurement": "relative viability", "setting": "NCI-H1755; first compound 0.8 µM", "value": 0.421}, {"measurement": "relative viability", "setting": "NCI-H1755; first compound 2.53 µM", "value": 0.565}, {"measurement": "relative viability", "setting": "LCLC-97TM1; first compound 0.08 µM", "value": 0.176}, {"measurement": "relative viability", "setting": "LCLC-97TM1; first compound 0.253 µM", "value": 0.183}, {"measurement": "relative viability", "setting": "LCLC-97TM1; first compound 0.8 µM", "value": 0.173}, {"measurement": "relative viability", "setting": "LCLC-97TM1; first compound 2.53 µM", "value": 0.188}, {"measurement": "relative viability", "setting": "NCI-H2347; first compound 0.08 µM", "value": 0.44}, {"measurement": "relative viability", "setting": "NCI-H2347; first compound 0.253 µM", "value": 0.42}, {"measurement": "relative viability", "setting": "NCI-H2347; first compound 0.8 µM", "value": 0.398}, {"measurement": "relative viability", "setting": "NCI-H2347; first compound 2.53 µM", "value": 0.431}, {"measurement": "relative viability", "setting": "NCI-H1666; first compound 0.08 µM", "value": 0.91}, {"measurement": "relative viability", "setting": "NCI-H1666; first compound 0.253 µM", "value": 0.824}, {"measurement": "relative viability", "setting": "NCI-H1666; first compound 0.8 µM", "value": 0.843}, {"measurement": "relative viability", "setting": "NCI-H1666; first compound 2.53 µM", "value": 0.747}, {"measurement": "relative viability", "setting": "NCI-H1993; first compound 0.08 µM", "value": 0.6}, {"measurement": "relative viability", "setting": "NCI-H1993; first compound 0.253 µM", "value": 0.512}, {"measurement": "relative viability", "setting": "NCI-H1993; first compound 0.8 µM", "value": 0.535}, {"measurement": "relative viability", "setting": "NCI-H1993; first compound 2.53 µM", "value": 0.519}]}
